Measured values as given in patent US11826351B2, “Compounds useful as kinase inhibitors” (Loxo Oncology, Inc., priority 2015, dated 2023).

Assays:
[1] = system: OCI-Ly10 human DLBCL cells; assay: OCI-Ly10 anti-proliferative activity (Resazurin); type: cell-based; settings: Homo sapiens, OCI-Ly10, 72 h, OCI-Ly10 cells, 72 h compound treatment, Resazurin; read-out: Proliferation Assay OCI-Ly10-20% FBS
Procedure, shortened: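 A separate untreated plate gave the Day 0 reading, measured by Resazurin fluorescence at 590 nm after 5 h. The average Day 0 value was subtracted from each treated well, and results were expressed as percent of DMSO control. IC50 values came from a log[Inhibitor] vs response Variable Slope fit in Graphpad prism.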

[2] = molecular target: T1, Recombinant EGFR (Homo sapiens, UniProt P00533); assay: EGFR binding affinity (LanthaScreen TR-FRET); settings: Kinase Tracer 199, 5 h incubation
T1 construct: purchased Invitrogen
T1 sequence (P00533 25-1210): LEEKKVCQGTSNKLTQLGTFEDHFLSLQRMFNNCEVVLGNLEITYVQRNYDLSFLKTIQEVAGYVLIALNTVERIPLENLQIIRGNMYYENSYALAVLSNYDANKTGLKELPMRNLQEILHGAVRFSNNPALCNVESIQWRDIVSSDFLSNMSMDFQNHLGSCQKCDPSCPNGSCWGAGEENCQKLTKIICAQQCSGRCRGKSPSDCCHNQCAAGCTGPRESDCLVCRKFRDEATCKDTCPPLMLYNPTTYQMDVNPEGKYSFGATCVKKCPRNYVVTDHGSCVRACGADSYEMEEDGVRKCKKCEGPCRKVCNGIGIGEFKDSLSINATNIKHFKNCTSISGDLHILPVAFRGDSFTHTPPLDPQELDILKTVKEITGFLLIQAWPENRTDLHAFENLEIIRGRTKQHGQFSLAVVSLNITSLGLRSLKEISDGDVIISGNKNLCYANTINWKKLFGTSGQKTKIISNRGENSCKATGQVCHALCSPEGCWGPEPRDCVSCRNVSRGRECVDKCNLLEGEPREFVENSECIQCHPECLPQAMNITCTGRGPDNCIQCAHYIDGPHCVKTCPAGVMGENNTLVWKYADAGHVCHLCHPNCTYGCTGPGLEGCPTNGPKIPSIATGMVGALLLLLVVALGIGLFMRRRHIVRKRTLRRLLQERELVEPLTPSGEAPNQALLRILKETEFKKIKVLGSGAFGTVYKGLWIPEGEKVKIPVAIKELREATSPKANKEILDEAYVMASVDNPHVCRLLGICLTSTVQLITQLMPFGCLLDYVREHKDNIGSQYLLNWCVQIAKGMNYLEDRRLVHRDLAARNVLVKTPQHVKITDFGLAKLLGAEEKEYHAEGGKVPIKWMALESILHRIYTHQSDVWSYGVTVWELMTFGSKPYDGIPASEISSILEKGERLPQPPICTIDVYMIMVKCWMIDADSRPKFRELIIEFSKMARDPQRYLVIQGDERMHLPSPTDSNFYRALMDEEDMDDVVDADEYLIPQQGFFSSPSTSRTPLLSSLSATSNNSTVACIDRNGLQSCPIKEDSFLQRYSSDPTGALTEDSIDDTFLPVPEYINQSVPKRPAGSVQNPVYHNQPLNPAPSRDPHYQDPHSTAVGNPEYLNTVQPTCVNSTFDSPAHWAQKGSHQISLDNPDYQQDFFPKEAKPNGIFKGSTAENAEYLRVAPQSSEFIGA
Procedure, shortened: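 Compounds were titrated against recombinant EGFR and binding was followed by LanthaScreen time-resolved FRET.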

[3] = molecular target: T2, Recombinant BTK^C481S kinase (Homo sapiens, UniProt Q06187, C481S); assay: BTK C481S binding affinity (LanthaScreen TR-FRET); settings: Kinase Tracer 236, 5 h incubation
T2 construct: purchased SignalChem
T2 sequence (Q06187 whole entry C481S): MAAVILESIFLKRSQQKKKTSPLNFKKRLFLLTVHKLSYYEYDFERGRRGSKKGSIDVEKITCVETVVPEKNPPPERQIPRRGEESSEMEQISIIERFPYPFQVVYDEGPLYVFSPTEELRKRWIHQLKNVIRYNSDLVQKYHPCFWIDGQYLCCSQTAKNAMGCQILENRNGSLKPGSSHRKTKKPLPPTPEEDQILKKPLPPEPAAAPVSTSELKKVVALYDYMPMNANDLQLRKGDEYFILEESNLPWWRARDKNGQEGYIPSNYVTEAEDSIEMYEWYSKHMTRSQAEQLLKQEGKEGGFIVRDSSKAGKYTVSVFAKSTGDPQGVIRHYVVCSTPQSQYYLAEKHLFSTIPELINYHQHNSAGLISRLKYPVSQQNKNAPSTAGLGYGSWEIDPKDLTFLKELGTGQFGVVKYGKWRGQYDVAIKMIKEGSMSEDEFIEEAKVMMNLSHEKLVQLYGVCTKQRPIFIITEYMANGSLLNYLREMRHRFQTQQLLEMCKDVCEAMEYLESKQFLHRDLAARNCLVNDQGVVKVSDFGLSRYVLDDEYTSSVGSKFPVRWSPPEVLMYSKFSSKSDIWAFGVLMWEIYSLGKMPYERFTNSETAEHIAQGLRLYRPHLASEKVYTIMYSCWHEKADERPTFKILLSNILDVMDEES
Procedure, shortened: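 BTK C481S tracer-displacement TR-FRET: 5 nM His-tagged kinase, 2 nM Eu anti-His antibody and 30 nM Kinase Tracer 236 incubated with titrated inhibitor for 5 h in Kinase Buffer A. Read at 340 nm excitation, 615/665 nm emission; IC50 from variable-slope log[inhibitor]–response fit.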

[4] = molecular target: T3, Recombinant BTK^WT kinase (Homo sapiens, UniProt Q06187); assay: BTK WT binding affinity (LanthaScreen TR-FRET); settings: Kinase Tracer 236, 5 h incubation
T3 construct: purchased Invitrogen
T3 sequence (Q06187 whole entry): as the sequence (Q06187 whole entry C481S) above, with S481C counted along it
Procedure, shortened: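 IC50 obtained by variable-slope fit of TR-FRET signal (ex 340 nm; em 615 and 665 nm) versus inhibitor concentration. Reaction held for 5 h in LanthaScreen Kinase Buffer A with 2.5 nM His-tagged BTK^WT, 15 nM Kinase Tracer 236 and 2 nM Eu anti-His antibody.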

Compound	IC50 [1] [nM]	IC50 [2] [nM]	IC50 [3] [nM]	IC50 [4] [nM]
COc1ccccc1C(=O)NCc1ccc(-c2nn(C3CCOCC3)c(N)c2C(N)=O)cc1F [Example 116, 5-amino-3-[3-fluoro-4-[[(2-methoxybenzoyl)amino]methyl]phenyl]-1-tetrahydropyran-4-yl-pyrazole-4-carboxamide]	100 to 1000	1000 to 10000	< 10	10 to 100
COc1ccccc1C(=O)NCc1ccc(-c2nn(C(C)CO)c(N)c2C(N)=O)cc1 (stereo not shown) [Example 135, 5-amino-1-(2-hydroxy-1-methyl-ethyl)-3-[4-[[(2-methoxybenzoyl)amino]methyl]phenyl]pyrazole-4-carboxamide]	1000 to 10000	> 10000	< 10	10 to 100
COc1ccc(F)cc1C(=O)NCc1ccc(-c2nn(C3CCCOC3)c(N)c2C(N)=O)c(F)c1 (stereo not shown) [Example 107, 5-amino-3-[2-fluoro-4-[[(5-fluoro-2-methoxy-benzoyl)amino]methyl]phenyl]-1-tetrahydropyran-3-yl-pyrazole-4-carboxamide]	10 to 100	> 10000	< 10	< 10
COc1ccc(F)cc1C(=O)NCc1ccc(-c2nn(C(C)C(F)(F)F)c(N)c2C(N)=O)c(F)c1 (stereo not shown) [Example 179, 5-amino-3-[2-fluoro-4-[[(5-fluoro-2-methoxy-benzoyl)amino]methyl]phenyl]-1-(2,2,2-trifluoro-1-methyl-ethyl)pyrazole-4-carboxamide]	10 to 100	1000 to 10000	< 10	< 10
COc1ccccc1C(=O)NCc1ccc(-c2nn(C(C)C(F)F)c(N)c2C(N)=O)cc1 (stereo not shown) [Example 126, 5-amino-1-(2,2-difluoro-1-methyl-ethyl)-3-[4-[[(2-methoxybenzoyl)amino]methyl]phenyl]pyrazole-4-carboxamide]	100 to 1000	1000 to 10000	< 10	10 to 100
COc1ccc(F)cc1C(=O)NCc1cc(F)c(-c2nn(C3CCCOC3)c(N)c2C(N)=O)cc1F (stereo not shown) [Example 149, 5-amino-3-[2,5-difluoro-4-[[(5-fluoro-2-methoxy-benzoyl)amino]methyl]phenyl]-1-tetrahydropyran-3-yl-pyrazole-4-carboxamide]	10 to 100	> 10000	< 10	< 10
COc1ccc(F)cc1C(=O)NCc1ccc(-c2nn(C3CCOCC3)c(N)c2C(N)=O)c(F)c1F [Example 142, 5-amino-3-[2,3-difluoro-4-[[(5-fluoro-2-methoxy-benzoyl)amino]methyl]phenyl]-1-tetrahydropyran-4-yl-pyrazole-4-carboxamide]	100 to 1000	1000 to 10000	< 10	< 10
COc1ccccc1C(=O)NCc1ccc(-c2nn(C3CCC(C)C3)c(N)c2C(N)=O)cc1 (stereo not shown) [Example 5, 5-Amino-3-[4-[[(2-methoxybenzoyl)amino]methyl]phenyl]-1-(3-methylcyclopentyl)pyrazole-4-carboxamide]	10 to 100	100 to 1000	< 10	< 10
COc1ccccc1C(=O)NCc1ccc(-c2nn(CC(O)C(C)(C)C)c(N)c2C(N)=O)cc1 (stereo not shown) [Example 14, 5-Amino-1-(2-hydroxy-3,3-dimethyl-butyl)-3-[4-[[(2-methoxybenzoyl)amino]methyl]phenyl]pyrazole-4-carboxamide]	100 to 1000	1000 to 10000	10 to 100	10 to 100
COc1ccc(F)cc1C(=O)NCc1ccc(-c2nn(C3CCNCC3(F)F)c(N)c2C(N)=O)cc1 (stereo not shown) [Example 186, 5-amino-1-(3,3-difluoro-4-piperidyl)-3-[4-[[(5-fluoro-2-methoxy-benzoyl)amino]methyl]phenyl]pyrazole-4-carboxamide]	10 to 100	1000 to 10000	< 10	< 10
